We go through 3 molecules from PubChem BioAssay (NCI).

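Five compound concentrations were applied to cells in 96-well plates for 48 hours; endpoints were derived by simple linear interpolation of the resulting dose-response curve. TGI denotes the concentration required for complete inhibition of growth.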

Experiment in all cases: inhibition of tumour cell growth, NCI panel, 48 h
The test system of assay [1] is OVCAR-3 ovarian.
Assay [2] concerns NCI-H522 lung.
The test system of assay [3] is HOP-92 NSCLC.
The subject of assay [4] is HOP-18 NSCLC.
Assay [5] deals with SR leukemia.
Assay [6] concerns RPMI-8226 leukemia.
Assay [7] has as its system UO-31 renal.
For assay [8], the system named is NCI-H23 lung.
In assay [9] the test system is SW-620 colon.
Assay [10] relates to OVCAR-4 ovarian.
For assay [11], the system named is U251 CNS.
The subject of assay [12] is DMS 114 small cell lung.
Assay [13] relates to HT29 colon.
In assay [14] the test system is SK-OV-3 ovarian.
Assay [15] has as its system OVCAR-8 ovarian.
In assay [16] the test system is KM12 colon.
For assay [17], the system named is K-562 leukemia.
In assay [18] the test system is HL-60(TB) leukemia.
For assay [19], the system named is MCF7 breast.
The test system of assay [20] is EKVX NSCLC.

Take `CCOc1ccc(C(C)c2cc3c(cc2OC)OCO3)cc1` (configuration not stated): the TGI was 27.7 µM in assay [1]; 0.166 µM in assay [2]; 9.93 µM in assay [3]; > 100 µM in assay [4]; 0.442 µM in assay [5]; 22.2 µM in [6]. The TGI in assay [7] is > 100 µM; in assay [8], > 100 µM; in assay [9], > 100 µM; in assay [10], > 100 µM; in assay [11], > 100 µM; in [12], 0.85 µM. The TGI in assay [13] is 12.4 µM; in assay [14], > 100 µM; in assay [15], 9.59 µM.
Take `COC1=CC(=O)C=C(OC)C1=O`: the TGI was 32.2 µM in assay [1]; 34.4 µM in assay [2]; 7.89 µM in assay [3]; 79.7 µM in assay [4]; 20.5 µM in assay [6]; 54.1 µM in assay [7]. The TGI in assay [8] is 22.7 µM; in assay [9] it was 13.5 µM; in [10] it was 16.8 µM; in [16], 39.3 µM; in assay [11], 64.5 µM; in assay [12] it was 13.5 µM. The TGI was 65.3 µM in assay [13]; 18 µM in [17]; 40.3 µM in assay [14]; 12.4 µM in [18]; 42.7 µM in assay [19]; 13 µM in [20]. For the same molecule, the TGI in [15] amounted to 32.1 µM.
`CN1Cc2cc(O)c(O)cc2C(O)C1` (configuration not stated): the TGI in assay [1], in [2], in assay [3], in assay [5], in assay [6] and in [7] was > 100 µM each time. Further, the TGI in [8], in [9], in assay [10], in [16], in assay [11] and in assay [13] was > 100 µM each time. For the same molecule, the TGI in assay [17], in assay [14], in assay [18], in [19], in assay [20] and in assay [15] was > 100 µM in each case.
